Legend:
[1] = test system: Salmonella typhimurium strains TA 98, TA 100, TA 1535, TA 1537, TA 1538, TA 1978; assay: Ames assay (spot test), revertant colonies; assay type: cell-based; conditions: for Mean number of revertant colonies per plate, TA 98 +S9: strain TA 98, +S9; for Mean number of revertant colonies per plate, TA 98 -S9: strain TA 98, -S9; for Mean number of revertant colonies per plate, TA 100 +S9: strain TA 100, +S9; for Mean number of revertant colonies per plate, TA 100 -S9: strain TA 100, -S9; for Mean number of revertant colonies per plate, TA 1535 +S9: strain TA 1535, +S9; for Mean number of revertant colonies per plate, TA 1535 -S9: strain TA 1535, -S9; for Mean number of revertant colonies per plate, TA 1537 +S9: strain TA 1537, +S9; for Mean number of revertant colonies per plate, TA 1537 -S9: strain TA 1537, -S9; for Mean number of revertant colonies per plate, TA 1538 +S9: strain TA 1538, +S9; for Mean number of revertant colonies per plate, TA 1538 -S9: strain TA 1538, -S9; for Mean number of revertant colonies per plate, TA 1978 +S9: strain TA 1978, +S9; for Mean number of revertant colonies per plate, TA 1978 -S9: strain TA 1978, -S9
Method: This means that aziridine compounds, 1, 10, or 11, will not cause mutations in DNA arising from potential changes in frame shift and/or base pairing. Compounds 1, 10 and 11 were tested for mutagenic properties using the following experimental procedure.
Potential mutagenic and carcinogenic properties of the compounds were evaluated with standard Ames assay procedures (Ames et al, "Mutation Res.", 31, p. 347, 1975). This assay used strains of Salmonella typhimurium selected for sensitivity and specificity in being reverted from a histidine requirement back to prototrophy by a wide variety of mutagens. Potential changes in frameshift were evaluated using strains TA 98, TA 1537 and TA 1538, while changes in base pairing were detected using strains TA 100 and TA 1535. In addition, strain TA 1978 was used, in combination with TA 1538, to evaluate whether the agent killed bacteria by damage to DNA that could be repaired by this strain. Initially, the compounds were screened using the spot test, in which 1000 μgm of material dissolved in 10 μl of DNSO was applied to the middle of the plate.
Dose-response tests were not performed because the results were negative. All the tests were carried out in the presence and absence of an S9 rat liver preparation and contained a positive control (2-acetylaminofluorene,AAF) and a negative control (DMSO).

[2] = test system: tobacco hornworm larvae (newly ecdysed fifth-instar); assay: Topical application to tobacco hornworm larvae; assay type: in vivo, Manduca sexta
Method: The test compounds were dissolved either in acetone or hexane and applied to the integument of the test insect with a micro applicator. Newly ecdysed fifth-instar tobacco hornworm larvae weighing between 1-1.5 g were used and toxicity data were obtained in the same way as previously described.

H. virescens = assay: Incorporation into H. virescens diet; assay type: in vivo, Heliothis virescens; conditions: as much as 20 mM in diet
Method: Compounds 1, 10, 11, 13 and 14 were incorporated into H. virescens diet in the same manner as M. Sexta. Diets containing as much as 20 mM of each compound had little effect on larval development time, pupal weight or time to adult emergence.

[3] = test system: tobacco hornworm (Manduca sexta) larvae; assay: Tobacco hornworm growth and developmental responses to feeding on diets containing the compounds; assay type: in vivo; conditions: for larval death (words in table) / larval mortality / symptoms of larvae / time until all larvae dead: 5 mM in diet; for oral activity: diet, Example 2; for larval mortality (acute toxicity): in 24-72 hours
Method: The compounds produced and described in Example 1 were then tested for pesticidal activity against the tobacco hornworm (Manduca sexta). The screening procedure for these tests began with the larval stage and continued through the pupal and adult stages and finally evaluated egg production. The studies thus permitted the evaluation of the effects of the compounds over several subsequent developmental stages in the total life cycle of the insect, giving estimates of acute toxicity (insecticidalor larvicidal activity) as well as prolonged or delayed effects on development (growth regulation) and reproduction (chemosterilization). The latter are of special importance in conjunction with the integrated pest management approach to insect control.
The test compounds were incorporated into the artificial diet of tobacco hornworm larvae and their subsequent growth and developmental responses were monitored using the following parameters: larval mortality including determination of LD50 values, rate of larval development and weight gain, percent pupation, pupal weight and degree of deformities, percent adult emergence and measures of reproductive capacity such as the number of developed ooctyes, fecundity and fertility. The protocol for the screening tests has been developed over a number of years by Dahlman et al., Comp. Biochem. Physiol. 51A, 33, (1975); Comp. Biochem. Physiol., 52A, 105 (1975); Ent. Exp. et Appl., 22, 123 (1977); Palumbo and D. L. Dahlman, J. Econ. Entomol. 71, 674 (1978); D. L. Dahlman, Ent. Exp. et Appl., 24, 327 (1978).
Each treatment used 15 newly ecdysed fifth-instar larvae. Death of larvae within a few hours to several days of initial exposure was considered to be acute toxicity. However, the compounds may reduce the maximum size attained by larvae and/or may retard growth so that larvae require additional time to attain their maximum size. Developmental parameters subsequent to the feeding stage also may be affected. […] Mortality may occur in the pupal stage or emerging adults may have wrinkled wings or other deformities. The number of eggs produced by treated females may be reduced and/or unfertile. Although acute toxicity is desirable in the control of any insect, the delayed effects which result in poor survival and reduced reproductive capacity are significant factors in the long-range program of pest management systems.
Continuous cultures of M. sexta are maintained according to the procedures of Yamamoto, J. Econ. Entomol., 62, p. 1427 (1969). Ingredients of the diet formulation include sugar, casein, wheat germ oil, cholesterol, salt mixture, yeast, vitamins, antioxidants and fungal inhibitors, such as ascorbic acid, sorbic acid, formaldehyde and methyl-p-benzoate. All are incorporated into a liquid agar base which, when poured into holding pans, solidifies to form an adequate substrate upon which the insect larvae feed. Nearly any test material can be uniformly incorporated into such a diet. Thus, exposure to experimental compounds can be evaluated during all or any part of the larval stage. In addition, chronic or long-term effects in subsequent life stages can also be monitored.
The results from these studies, in which the 1,2-diphenylaziridines of Example 1 were incorporated singly into the diet of M. sexta at a concentration of 5 mM are presented in the following Table I.

CC(=O)Nc1ccc2c(c1)Cc1ccccc1-2 [AAF, 2-acetylaminofluorene, reference compound]
Mean number of revertant colonies per plate, TA 98 +S9 [1]: 284.7 colonies per plate | Mean number of revertant colonies per plate, TA 98 -S9 [1]: 32.7 colonies per plate | Mean number of revertant colonies per plate, TA 100 +S9 [1]: 78.0 colonies per plate | Mean number of revertant colonies per plate, TA 100 -S9 [1]: 25.3 colonies per plate | Mean number of revertant colonies per plate, TA 1535 +S9 [1]: 19.7 colonies per plate | Mean number of revertant colonies per plate, TA 1535 -S9 [1]: 15.7 colonies per plate | Mean number of revertant colonies per plate, TA 1537 +S9 [1]: 14.7 colonies per plate | Mean number of revertant colonies per plate, TA 1537 -S9 [1]: 7.7 colonies per plate | Mean number of revertant colonies per plate, TA 1538 +S9 [1]: 313.7 colonies per plate | Mean number of revertant colonies per plate, TA 1538 -S9 [1]: 14.7 colonies per plate | Mean number of revertant colonies per plate, TA 1978 +S9 [1]: 358.3 colonies per plate | Mean number of revertant colonies per plate, TA 1978 -S9 [1]: 196.3 colonies per plate

Clc1ccccc1C1CN1c1ccc(Br)cc1 (centres unmarked) [Compound 1]
larvae killed ([2]; 1000 μg/larva (800 ppm), within 48 hr): 70% | developmental effects ([2]; 400 ppm topical): delayed larval development, reduced maximum size and the number of resulting eggs | Mean number of revertant colonies per plate, TA 98 +S9 [1]: 44.0 colonies per plate | Mean number of revertant colonies per plate, TA 98 -S9 [1]: 32.7 colonies per plate | Mean number of revertant colonies per plate, TA 100 +S9 [1]: 61.7 colonies per plate | Mean number of revertant colonies per plate, TA 100 -S9 [1]: 25.3 colonies per plate | Mean number of revertant colonies per plate, TA 1535 +S9 [1]: 15.0 colonies per plate | Mean number of revertant colonies per plate, TA 1535 -S9 [1]: 17.3 colonies per plate | Mean number of revertant colonies per plate, TA 1537 +S9 [1]: 13.3 colonies per plate | Mean number of revertant colonies per plate, TA 1537 -S9 [1]: 7.5 colonies per plate | Mean number of revertant colonies per plate, TA 1538 +S9 [1]: 26.7 colonies per plate | Mean number of revertant colonies per plate, TA 1538 -S9 [1]: 12.0 colonies per plate | Mean number of revertant colonies per plate, TA 1978 +S9 [1]: 189.0 colonies per plate | Mean number of revertant colonies per plate, TA 1978 -S9 [1]: 207.3 colonies per plate | mutagenicity ([1]; with and without S9 / mammalian liver enzymes): not mutagenic | effect on larval development time, pupal weight or time to adult emergence (H. virescens): little effect | % Adult Emergence ([3]; 1 mM in diet): 100% | % Adults ([3]; 1 mM in diet): 100% | % Malformed Adults ([3]; 1 mM in diet): 0% | % Pupation ([3]; 1 mM in diet): 100% | Days to Max Wt ([3]; 1 mM in diet): 5.8 ± .2 days | Max Larval Wt ([3]; 1 mM in diet): 7.94 g | Mean No. of Eggs ([3]; 1 mM in diet): 32 ± 9 | No. of female Adults ([3]; 1 mM in diet): 10 | Total No. of Adults ([3]; 1 mM in diet): 15 | larval weight ([3]; 1 mM in diet): a slight reduction in larval weight | mean number of eggs ([3]; 1 mM in diet, relative to controls): only half that of the controls | % Adult Emergence ([3]; 2.5 mM in diet): 100% | % Adults ([3]; 2.5 mM in diet): 27% | % Malformed Adults ([3]; 2.5 mM in diet): 50% | % Pupation ([3]; 2.5 mM in diet): 27% | Days to Max Wt ([3]; 2.5 mM in diet): 6.2 ± 0.7 days | Max Larval Wt ([3]; 2.5 mM in diet): 4.99 g | Mean No. of Eggs ([3]; 2.5 mM in diet): 8 ± 9 | No. of female Adults ([3]; 2.5 mM in diet): 2 | Total No. of Adults ([3]; 2.5 mM in diet): 4 | malformed adults ([3]; 2.5 mM in diet): a large percentage | maximum larval weight and mean number of eggs ([3]; 2.5 mM in diet): reduced maximum larval weight and the mean number of eggs | percent pupation ([3]; 2.5 mM in diet): lowered the percent pupation | larval death (words in table) [3]: ALL DEAD BY SECOND DAY OF FEEDING | larval mortality [3]: all or nearly all larvae died | symptoms of larvae [3]: extreme agitation of larvae, oral and anal expulsion of fluids and ultimately, death | time until all larvae dead [3]: ≥ 48 h | oral activity [3]: good oral activity | larval mortality (acute toxicity) ([3]; summary of Tables I and II): 100% | time to 100% larval mortality ([3]; summary of Tables I and II): 24 to 72 h

FC(F)(F)c1ccc(N2CC2c2ccccc2Cl)cc1 (centres unmarked) [Compound 14]
topical effect ([2]; 2000 μg/larvae (1600 ppm)): ineffective | effect on larval development time, pupal weight or time to adult emergence (H. virescens): little effect | % Adult Emergence ([3]; 1 mM in diet): 100% | % Adults ([3]; 1 mM in diet): 93% | % Malformed Adults ([3]; 1 mM in diet): 36% | % Pupation ([3]; 1 mM in diet): 93% | Days to Max Wt ([3]; 1 mM in diet): 5.8 ± .1 days | Max Larval Wt ([3]; 1 mM in diet): 9.20 g | Mean No. of Eggs ([3]; 1 mM in diet): 83 ± 13 | No. of female Adults ([3]; 1 mM in diet): 9 | Total No. of Adults ([3]; 1 mM in diet): 14 | % Adult Emergence ([3]; 2.5 mM in diet): 8% | % Adults ([3]; 2.5 mM in diet): 7% | % Malformed Adults ([3]; 2.5 mM in diet): 100% | % Pupation ([3]; 2.5 mM in diet): 93% | Days to Max Wt ([3]; 2.5 mM in diet): 6.6 ± 0.2 days | Max Larval Wt ([3]; 2.5 mM in diet): 8.03 g | Mean No. of Eggs ([3]; 2.5 mM in diet): 0 | No. of female Adults ([3]; 2.5 mM in diet): 1 | Total No. of Adults ([3]; 2.5 mM in diet): 1 | malformed adults ([3]; 2.5 mM in diet): a large percentage | maximum larval weight and mean number of eggs ([3]; 2.5 mM in diet): reduced maximum larval weight and the mean number of eggs | larval death (words in table) [3]: ALL DEAD WITHIN 3 DAYS | larval mortality [3]: all or nearly all larvae died | symptoms of larvae [3]: extreme agitation of larvae, oral and anal expulsion of fluids and ultimately, death | time until all larvae dead [3]: ≥ 48 h | mortality at 2500 µM ([3]; Manduca sexta, po, 2.5 mM in diet, read-out: pupal mortality): 85% | oral activity [3]: good oral activity | larval mortality (acute toxicity) ([3]; summary of Tables I and II): 100% | pupal mortality ([3]; summary of Tables I and II): caused pupal mortality | time to 100% larval mortality ([3]; summary of Tables I and II): 24 to 72 h
